The source of these data is patent US20250074906A1, “AZAINDOLE DERIVATIVE THAT INHIBITS H-PGDS” (SATO PHARMACEUTICAL CO., LTD., priority 2021, published 2025).

Each structure is given as a SMILES string.

T1 sequence (O60760 whole entry): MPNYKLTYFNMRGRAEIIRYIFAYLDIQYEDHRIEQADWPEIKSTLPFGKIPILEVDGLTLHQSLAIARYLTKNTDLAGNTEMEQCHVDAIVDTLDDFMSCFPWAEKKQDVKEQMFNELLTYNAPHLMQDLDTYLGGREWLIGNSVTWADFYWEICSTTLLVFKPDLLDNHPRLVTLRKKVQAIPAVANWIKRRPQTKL

This test concerns the target T1, Recombinant human H-PGDS (Homo sapiens, UniProt O60760).
T1 construct: made in house; host or cells: E. coli
Nature of the test: H-PGDS inhibitory activity (prostaglandin D2 production measured by LC-MS/MS). Particulars: recombinant human H-PGDS 1.0 nM expressed in E. coli; prostaglandin H2 25 μM; 15 min preincubation and 1 min reaction on ice. The format is biochemical. Here is the method: The H-PGDS inhibitory activity of each Example compound was measured according to the method described in WO 2007/041634.
Recombinant human H-PGDS (final concentration: 1.0 nM) expressed in E. coli was mixed in an assay buffer containing 20 mM Tris-HCl (pH 8.0), 2 mM magnesium chloride, 2 mM reduced glutathione, and 0.5 mg/mL γ-globulin, and 150 μL of the mixture was dispensed into an 8-strip PCR tube (BM Equipment Co., Ltd). Test compounds (Example compounds) (16.5 μL) at various concentrations dissolved in DMSO were added and the mixture was preincubated for 15 minutes on ice.
Prostaglandin H2 (final concentration: 25 μM) (Cayman Chemical) was dispensed into another 8-strip PCR tube, and the solvent was dried and solidified using a vacuum concentrator (Thermo Fisher Scientific). To the dried and solidified prostaglandin H2 was added 50 μL of the assay buffer containing H-PGDS and each test compound after the preincubation, and the mixture was reacted on ice for 1 minute. 40 μL of this mixture was added to 40 μL of a stop solution (50 mM aqueous citric acid solution containing iron chloride at a final concentration of 4 mg/mL) to stop the reaction. Then, the reaction solution was deproteinized, added to a 96 square deep well plate (SHONANMARUHACHI STEC Co., Ltd.), and the prostaglandin D2 concentration in the reaction solution was measured by LC-MS/MS. ACQUITY (registered trademark) TQD (Waters) was used as a measuring instrument.
Prostaglandin D2 production activity (%) in the group with each test compound when a value obtained by subtracting the amount of production of prostaglandin D2 in the group without enzyme, which is non-specific production of prostaglandin D2, from the amount of production of prostaglandin D2 in the group without test compound (DMSO-addition group) in each 8-strip PCR tube is 100% was calculated. From the calculated activity value, the test compound concentration that inhibits prostaglandin D2 production by 50% (IC50) was determined.
`O=C(NC12CCC(O)(CC1)C2)c1ccc(-c2ncc(Cl)c3[nH]ccc23)cc1` [Example 32, 4-(7-chloro-1H-pyrrolo[3,2-c]pyridin-4-yl)-N-(4-hydroxybicyclo[2.2.1]heptan-1-yl)benzamide]: the IC50 – broadly, the concentration that inhibits the measured activity by half – turned out to be 910 pM. Under `O=C(N[C@H]1CC[C@@H](O)CC1)c1ccc(-c2ncc(Cl)c3[nH]ccc23)cc1` [Example 33, 4-(7-chloro-1H-pyrrolo[3,2-c]pyridin-4-yl)-N-(cis-4-hydroxycyclohexyl)benzamide] stands 770 pM; under `C[C@]1(O)CC[C@H](NC(=O)c2ccc(-c3ncc(Cl)c4[nH]ccc34)cc2)CC1` [Example 34, 4-(7-chloro-1H-pyrrolo[3,2-c]pyridin-4-yl)-N-(trans-4-hydroxy-4-methylcyclohexyl)benzamide], 860 pM; under `CC(C)(O)[C@H]1CC[C@H](NC(=O)c2ccc(-c3ncc(F)c4[nH]ccc34)c(F)c2)CC1` [Example 35, 3-fluoro-4-(7-fluoro-1H-pyrrolo[3,2-c]pyridin-4-yl)-N-[trans-4-(2-hydroxypropan-2-yl)cyclohexyl]benzamide], 1200 pM.

In the case of `O=C(NC12CCC(O)(CC1)CC2)c1ccc(-c2ncc(F)c3[nH]ccc23)c(F)c1` [Example 36, 3-fluoro-4-(7-fluoro-1H-pyrrolo[3,2-c]pyridin-4-yl)-N-(4-hydroxybicyclo[2.2.2]octan-1-yl)benzamide], the half-inhibitory concentration (IC50) worked out at 710 pM. The result for `C[C@]1(O)CC[C@H](NC(=O)c2ccc(-c3ncc(F)c4[nH]ccc34)c(F)c2)CC1` [Example 37, 3-fluoro-4-(7-fluoro-1H-pyrrolo[3,2-c]pyridin-4-yl)-N-(trans-4-hydroxy-4-methylcyclohexyl)benzamide] reads 950 pM; that for `O=C(NC1CCOCC1)c1ccc(-c2ncc(F)c3[nH]ccc23)c(F)c1` [Example 38, 3-fluoro-4-(7-fluoro-1H-pyrrolo[3,2-c]pyridin-4-yl)-N-(tetrahydropyran-4-yl)benzamide], 850 pM; that for `O=C(N[C@H]1CC[C@H](O)CC1)c1ccc(-c2ncc(F)c3[nH]ccc23)c(F)c1` [Example 39, 3-fluoro-4-(7-fluoro-1H-pyrrolo[3,2-c]pyridin-4-yl)-N-(trans-4-hydroxycyclohexyl)benzamide], 650 pM. The result for `C[C@]1(O)CC[C@@H](NC(=O)c2ccc(-c3ncc(F)c4[nH]ccc34)c(F)c2)CC1` [Example 40, 3-fluoro-4-(7-fluoro-1H-pyrrolo[3,2-c]pyridin-4-yl)-N-(cis-4-hydroxy-4-methylcyclohexyl)benzamide] reads 1100 pM. Regarding `O=C(NC12CCC(O)(CC1)C2)c1ccc(-c2ncc(F)c3[nH]ccc23)c(F)c1` [Example 41, 3-fluoro-4-(7-fluoro-1H-pyrrolo[3,2-c]pyridin-4-yl)-N-(4-hydroxybicyclo[2.2.1]heptan-1-yl)benzamide], the IC50 worked out at 890 pM. Under `O=C(N[C@H]1CC[C@@H](O)CC1)c1ccc(-c2ncc(F)c3[nH]ccc23)c(F)c1` [Example 42, 3-fluoro-4-(7-fluoro-1H-pyrrolo[3,2-c]pyridin-4-yl)-N-(cis-4-hydroxycyclohexyl)benzamide] stands 920 pM; under `CC(C)(O)[C@H]1CC[C@H](NC(=O)c2ccc(-c3nccc4[nH]ncc34)cc2)CC1` [Example 43, N-[trans-4-(2-hydroxypropan-2-yl)cyclohexyl]-4-(1H-pyrazolo[4,3-c]pyridin-4-yl)benzamide], 2400 pM; under `CC(C)(O)[C@H]1CC[C@H](NC(=O)c2ccc(-c3nccc4[nH]cnc34)cc2)CC1` [Example 44, N-[trans-4-(2-hydroxypropan-2-yl)cyclohexyl]-4-(1H-imidazo[4,5-c]pyridin-4-yl)benzamide], 4000 pM. Under `CC(C)(O)[C@H]1CC[C@H](NC(=O)c2ccc(-c3nccc4[nH]nnc34)cc2)CC1` [Example 45, 4-(1H-[1,2,3]triazolo[4,5-c]pyridin-4-yl)-N-[trans-4-(2-hydroxypropan-2-yl)cyclohexyl]benzamide] stands 24000 pM; under `CC(C)(O)[C@H]1CC[C@H](NC(=O)c2ccc(-c3ncc(F)c4[nH]ncc34)cc2)CC1` [Example 46, 4-(7-fluoro-1H-pyrazolo[4,3-c]pyridin-4-yl)-N-[trans-4-(2-hydroxypropan-2-yl)cyclohexyl]benzamide], 5300 pM. As for `O=C(NC12CCC(O)(CC1)CC2)c1ccc(-c2ncc(F)c3[nH]ncc23)cc1` [Example 47, 4-(7-fluoro-1H-pyrazolo[4,3-c]pyridin-4-yl)-N-(4-hydroxybicyclo[2.2.2]octan-1-yl)benzamide], the IC50 is 14000 pM. Under `CC(C)(O)[C@H]1CC[C@H](NC(=O)c2ccc(-c3ncc(Cl)c4[nH]ncc34)cc2)CC1` [Example 48, 4-(7-chloro-1H-pyrazolo[4,3-c]pyridin-4-yl)-N-[trans-4-(2-hydroxypropan-2-yl)cyclohexyl]benzamide] stands 5900 pM. Under `CC(C)(O)[C@H]1CC[C@H](NC(=O)c2ccc(-c3nccc4[nH]ncc34)c(F)c2)CC1` [Example 49, 3-fluoro-N-[trans-4-(2-hydroxypropan-2-yl)cyclohexyl]-4-(1H-pyrazolo[4,3-c]pyridin-4-yl)benzamide] stands 780 pM.
